Experiments:
Type in all cases: biochemical
JIK = target: T1, JIK (Homo sapiens, UniProt Q9H2K8); experiment: JIK Luciferase-Coupled Chemiluminescent Kinase assay (LCCA); conditions: 2 μM ATP, 10 μM MBP, 6 nM JIK, 2 hours; read-out: JIK inhibition IC50
T1 construct: 6 nM JIK (baculovirus expressed human KIAA 1361 kinase domain2-318); made in house
T1 sequence (Q9H2K8 2-318): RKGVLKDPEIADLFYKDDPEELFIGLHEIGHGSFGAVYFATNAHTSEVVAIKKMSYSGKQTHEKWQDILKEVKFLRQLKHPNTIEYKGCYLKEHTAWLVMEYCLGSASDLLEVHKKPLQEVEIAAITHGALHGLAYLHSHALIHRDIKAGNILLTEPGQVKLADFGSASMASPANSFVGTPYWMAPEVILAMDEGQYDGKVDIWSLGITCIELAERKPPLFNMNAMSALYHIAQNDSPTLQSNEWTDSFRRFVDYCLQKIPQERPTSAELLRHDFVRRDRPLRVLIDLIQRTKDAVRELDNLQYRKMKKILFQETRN
Summary of the method: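 Baculovirus-expressed human KIAA 1361 kinase domain 2-318 at 6 nM, with 10 μM MBP and 2 μM ATP in Tris pH 7.5 with Mg/Mn, ran 2 h at ambient temperature. Remaining ATP was read by luciferase chemiluminescence. IC50 comes from a 10-concentration four-parameter fit.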

[1] = target: T2, KIAA 1361 (baculovirus expressed human KIAA 1361 kinase domain 2-322) (Homo sapiens, UniProt Q7L7X3); experiment: KIAA 1361 Luciferase-Coupled Chemiluminescent Kinase assay (LCCA); conditions: 2 μM ATP, 10 μM MBP, 12 nM KIAA 1361, 2 hours; read-out: KIAA1361 inhibition IC50
T2 construct: human KIAA 1361 kinase domain 2-322; made in house
T2 sequence (Q7L7X3 2-322): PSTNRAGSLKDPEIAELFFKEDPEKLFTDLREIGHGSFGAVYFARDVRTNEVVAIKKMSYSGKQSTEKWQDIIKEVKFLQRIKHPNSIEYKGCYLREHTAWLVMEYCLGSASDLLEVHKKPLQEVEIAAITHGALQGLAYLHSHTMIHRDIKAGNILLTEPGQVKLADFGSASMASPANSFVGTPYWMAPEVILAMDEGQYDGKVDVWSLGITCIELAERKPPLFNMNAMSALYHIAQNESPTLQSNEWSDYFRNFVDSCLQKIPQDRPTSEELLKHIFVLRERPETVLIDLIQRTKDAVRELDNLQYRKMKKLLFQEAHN
Summary of the method: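 KIAA 1361 kinase domain 2-322 (baculovirus, 12 nM) with 2 μM ATP and 10 μM MBP in Tris pH 7.5, MgCl2, MnCl2; 2 h, ambient. Remaining ATP read by luciferase chemiluminescence; 10 concentrations, IC50 by four-parameter fit.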

TAO = target: T3, TAO (Homo sapiens, UniProt Q9UL54); experiment: TAO Luciferase-Coupled Chemiluminescent Kinase assay (LCCA); conditions: 2 μM ATP, 10 μM MBP, 12 nM TAO, 2 hours; read-out: TAO inhibition IC50
T3 sequence (Q9UL54 1-1235): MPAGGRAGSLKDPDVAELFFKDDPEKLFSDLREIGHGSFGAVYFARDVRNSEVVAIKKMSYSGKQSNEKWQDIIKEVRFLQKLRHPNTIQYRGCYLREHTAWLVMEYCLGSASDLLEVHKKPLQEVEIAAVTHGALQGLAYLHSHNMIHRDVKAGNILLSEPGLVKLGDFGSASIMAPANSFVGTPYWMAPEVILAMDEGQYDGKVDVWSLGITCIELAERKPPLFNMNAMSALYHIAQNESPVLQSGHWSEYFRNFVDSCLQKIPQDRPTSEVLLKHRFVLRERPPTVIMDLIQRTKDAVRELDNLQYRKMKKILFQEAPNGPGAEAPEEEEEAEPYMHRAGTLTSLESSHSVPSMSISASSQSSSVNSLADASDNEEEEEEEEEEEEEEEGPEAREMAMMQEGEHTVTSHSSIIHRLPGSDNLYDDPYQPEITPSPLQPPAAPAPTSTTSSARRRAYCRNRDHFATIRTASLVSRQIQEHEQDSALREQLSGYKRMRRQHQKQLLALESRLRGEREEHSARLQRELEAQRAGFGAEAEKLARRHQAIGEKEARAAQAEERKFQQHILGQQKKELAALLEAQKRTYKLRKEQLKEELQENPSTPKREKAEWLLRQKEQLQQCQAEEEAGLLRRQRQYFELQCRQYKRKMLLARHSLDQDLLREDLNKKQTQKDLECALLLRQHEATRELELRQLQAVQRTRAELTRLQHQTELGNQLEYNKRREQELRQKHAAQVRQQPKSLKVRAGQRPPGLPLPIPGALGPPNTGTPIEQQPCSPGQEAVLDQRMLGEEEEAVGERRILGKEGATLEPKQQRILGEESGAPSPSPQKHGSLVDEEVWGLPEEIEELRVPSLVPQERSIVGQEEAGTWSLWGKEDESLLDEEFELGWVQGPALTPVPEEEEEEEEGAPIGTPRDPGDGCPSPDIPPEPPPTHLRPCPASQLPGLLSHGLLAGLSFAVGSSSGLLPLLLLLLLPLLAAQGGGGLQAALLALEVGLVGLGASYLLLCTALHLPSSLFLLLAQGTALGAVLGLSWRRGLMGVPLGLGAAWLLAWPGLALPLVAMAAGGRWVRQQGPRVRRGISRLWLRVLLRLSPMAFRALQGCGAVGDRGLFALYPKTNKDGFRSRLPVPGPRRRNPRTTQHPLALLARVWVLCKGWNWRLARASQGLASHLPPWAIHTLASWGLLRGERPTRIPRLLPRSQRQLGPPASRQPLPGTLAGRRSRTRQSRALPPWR

With `CCCCCc1ccc(C(=O)NCC(=O)NC2CCCc3ccccc32)cc1` (stereo not drawn) [Entry 11, N-[2-oxo-2-(1,2,3,4-tetrahydronaphthalen-1-ylamino)ethyl]-4-pentylbenzamide] the IC50 (JIK) was 50 to 500 nM, the IC50 [1] was 50 to 500 nM and the IC50 (TAO) was 50 to 500 nM.
For `CCCCCOc1ccc(C(=O)NC(CC(C)C)C(=O)NC2CCCc3ccccc32)cc1` (stereo not drawn) [Entry 35, N˜2˜-{[4-(pentyloxy)phenyl]carbonyl}-N(1,2,3,4-tetrahydronaphthalen-1-yl)leucinamide], the IC50 (JIK) was 50 to 500 nM, the IC50 [1] was > 5000 nM and the IC50 (TAO) was 500 to 5000 nM.
`COc1ccc2nc(NC(=O)CNC(=O)CC(NC(=O)c3ccccc3)c3ccccc3)sc2c1` (stereo not drawn) [Entry 63, N-{3-[(2-{[6-(methyloxy)-1,3-benzothiazol-2-yl]amino}-2-oxoethyl)amino]-3-oxo-1-phenylpropyl}benzamide] was tested, and the IC50 (JIK) was < 50 nM, the IC50 [1] was < 50 nM and the IC50 (TAO) was < 50 nM.
For `O=C(CNC(=O)c1ccc(C2CCCCC2)cc1)NC1CCCc2ccccc21` (stereo not drawn) [Entry 50, 4-cyclohexyl-N-[2-oxo-2-(1,2,3,4-tetrahydronaphthalen-1-ylamino)ethyl]benzamide], the IC50 (JIK) was 50 to 500 nM, the IC50 [1] was 50 to 500 nM and the IC50 (TAO) was 50 to 500 nM.
For `O=C(CNC(=O)Nc1cc(C(F)(F)F)cc(C(F)(F)F)c1)NC1CCCc2ccccc21` (stereo not drawn) [Entry 47, N˜2˜-({[3,5-bis(trifluoromethyl)phenyl]amino}carbonyl)-N-(1,2,3,4-tetrahydronaphthalen-1-yl)glycinamide], the IC50 (JIK) was > 5000 nM, the IC50 [1] was > 5000 nM and the IC50 (TAO) was > 5000 nM.
For “N-˜2˜-({[4-(1,1-dimethylethyl)phenyl]oxy}acetyl)-N-(1,2,3,4-tetrahydronaphthalen-1-yl)glycinamide [Entry 33]”, the IC50 (JIK) was 500 to 5000 nM, the IC50 [1] was 500 to 5000 nM and the IC50 (TAO) was > 5000 nM.
In the case of `O=C(CNC(=O)c1ccc(N2CCCCC2)cc1)NC1CCCc2ccccc21` (stereo not drawn) [Entry 77, N-[2-oxo-2-(1,2,3,4-tetrahydronaphthalen-1-ylamino)ethyl]-4-piperidin-1-ylbenzamide], the IC50 (JIK) is reported as 50 to 500 nM, the IC50 [1] is reported as 500 to 5000 nM and the IC50 (TAO) is reported as 500 to 5000 nM.
In the case of `Cc1cc(C(=O)NCC(=O)NC2CCCc3ccccc32)cc(C)c1OCc1ccccc1` (stereo not drawn) [Entry 20, 3,5-dimethyl-N-{2-oxo-2-(1,2,3,4-tetrahydronaphthalen-1-ylamino)ethyl]-4-[(phenylmethyl)oxy]benzamide], the IC50 (JIK) is reported as 50 to 500 nM, the IC50 [1] is reported as 50 to 500 nM and the IC50 (TAO) is reported as 500 to 5000 nM.
`CCc1ccc(-c2ccc(C(=O)NCC(=O)NC3CNCc4ccccc43)cc2)cc1` (stereo not drawn) [Entry 96, 4′-ethyl-N-[2-oxo-2-(1,2,3,4-tetrahydroisoquinolin-4-ylamino)ethyl]biphenyl-4-carboxamide] showed an IC50 (JIK) of 500 to 5000 nM, an IC50 [1] of 500 to 5000 nM and an IC50 (TAO) of 500 to 5000 nM.
With `COc1ccc2nc(NC(=O)COC(=O)CC(NC(=O)c3ccccc3)c3ccccc3)sc2c1` (stereo not drawn) [Entry 37, 2-{[6-(methyloxy)-1,3-benzothiazol-2-yl]amino}-2-oxoethyl 3-phenyl-3-[(phenylcarbonyl)amino]propanoate] the IC50 (JIK) was < 50 nM, the IC50 [1] was < 50 nM and the IC50 (TAO) was < 50 nM.
In the case of `CCCCCCc1ccc(C(=O)NCC(=O)NC2CCCc3ccccc32)cc1` (stereo not drawn) [Entry 10, 4-hexyl-N-[2-oxo-2-(1,2,3,4-tetrahydronaphthalen-1-ylamino)ethyl]benzamide], the IC50 (JIK) is reported as 50 to 500 nM, the IC50 [1] is reported as 50 to 500 nM and the IC50 (TAO) is reported as 50 to 500 nM.
In the case of `O=C(CNC(=O)c1ccc2ncccc2c1)Nc1cccc2c1CCCC2` [Entry 86, N-[2-oxo-2-(5,6,7,8-tetrahydronaphthalen-1-ylamino)ethyl]quinoline-6-carboxamide], the IC50 (JIK) is reported as > 5000 nM, the IC50 [1] is reported as > 5000 nM and the IC50 (TAO) is reported as > 5000 nM.
`COc1ccc2nc(NC(=O)CNC(=O)Cn3cnc4sc(C)c(C)c4c3=O)sc2c1` [Entry 40, N˜2˜-[(5,6-dimethyl-4-oxothieno[2,3-d]pyrimidin-3(4H)-yl)acetyl]-N-[6-(methyloxy)-1,3-benzothiazol-2-yl]glycinamide] was tested, and the IC50 (JIK) was 50 to 500 nM, the IC50 [1] was 50 to 500 nM and the IC50 (TAO) was 500 to 5000 nM.
Work on `O=C(CC(NC(=O)c1ccccc1)c1ccccc1)NCC(=O)Nc1nccs1` (stereo not drawn) [Entry 92, N-(3-oxo-3-{[2-oxo-2-(1,3-thiazol-2-ylamino)ethyl]amino}-1-phenylpropyl)benzamide] yielded an IC50 (JIK) of 50 to 500 nM, an IC50 [1] of 500 to 5000 nM and an IC50 (TAO) of 500 to 5000 nM.
In the case of `O=C(CNC(=O)c1ccc(-c2ccccc2)cc1)NC1CCCc2ccccc21` (stereo not drawn) [Entry 43, N-[2-oxo-2-(1,2,3,4-tetrahydronaphthalen-1-ylamino)ethyl]biphenyl-4-carboxamide], the IC50 (JIK) is reported as < 50 nM, the IC50 [1] is reported as < 50 nM and the IC50 (TAO) is reported as < 50 nM.
In the case of `CC(C)CC(NC(=O)c1ccc(-c2ccccc2)cc1)C(=O)NC1CCCc2ccccc21` (stereo not drawn) [Entry 32, N-{3-methyl-1-[(1,2,3,4-tetrahydronaphthalen-1-ylamino)carbonyl]butyl}biphenyl-4-carboxamide], the IC50 (JIK) is reported as 500 to 5000 nM, the IC50 [1] is reported as 500 to 5000 nM and the IC50 (TAO) is reported as > 5000 nM.
In the case of `O=C(CNC(=O)c1cnc2ccccc2c1)NC1CCCc2ccccc21` (stereo not drawn) [Entry 46, N-[2-oxo-2-(1,2,3,4-tetrahydronaphthalen-1-ylamino)ethyl]quinoline-3-carboxamide], the IC50 (JIK) is reported as > 5000 nM, the IC50 [1] is reported as > 5000 nM and the IC50 (TAO) is reported as > 5000 nM.
For `O=C(CNC(=O)c1ccc(O)cc1)NC1CCCc2ccccc21` (stereo not drawn) [Entry 56, 4-hydroxy-N-[2-oxo-2-(1,2,3,4-tetrahydronaphthalen-1-ylamino)ethyl]benzamide], the IC50 (JIK) was 50 to 500 nM, the IC50 [1] was 50 to 500 nM and the IC50 (TAO) was 500 to 5000 nM.
`CCCCc1ccc(C(=O)NCC(=O)NC2CCCc3ccccc32)cc1` (stereo not drawn) [Entry 29, 4-butyl-N-[2-oxo-2-(1,2,3,4-tetrahydronaphthalen-1-ylamino)ethyl]benzamide] was tested, and the IC50 (JIK) was 500 to 5000 nM, the IC50 [1] was 500 to 5000 nM and the IC50 (TAO) was > 5000 nM.
In the case of `CCc1ccc(-c2ccc(C(=O)NCC(=O)N[C@@H]3CCCc4ccccc43)cc2)cc1` [Entry 76, 4′-ethyl-N-{2-oxo-2-[(1R)-1,2,3,4-tetrahydronaphthalen-1-ylamino]ethyl}biphenyl-4-carboxamide], the IC50 (JIK) is reported as > 5000 nM, the IC50 [1] is reported as > 5000 nM and the IC50 (TAO) is reported as > 5000 nM.
With `O=C(CNC(=O)c1ccc(N2CCCCC2)cc1)Nc1cccc2c1CCCC2` [Entry 89, N-[2-oxo-2-(5,6,7,8-tetrahydronaphthalen-1-ylamino)ethyl]-4-piperidin-1-ylbenzamide] the IC50 (JIK) was > 5000 nM, the IC50 [1] was > 5000 nM and the IC50 (TAO) was > 5000 nM.
In the case of `O=C(CNC(=O)c1ccc2ncccc2c1)NC1CCCc2ccccc21` (stereo not drawn) [Entry 80, N-[2-oxo-2-(1,2,3,4-tetrahydronaphthalen-1-ylamino)ethyl]quinoline-6-carboxamide], the IC50 (JIK) is reported as 50 to 500 nM, the IC50 [1] is reported as 500 to 5000 nM and the IC50 (TAO) is reported as 500 to 5000 nM.
